# According to patent US20130345420A9, “SELECTIVE INHIBITORS OF EXCITATORY AMINO ACID TRANSPORTER SUBTYPE 1 (EAAT1/GLAST)” (priority 2008, published 2013):
# Where two headings read alike, the source gives them in different places.
# Key:
# human EAAT1 = molecular target: T1, human EAAT1 (Homo sapiens, UniProt P43003); assay: [3H]-D-Aspartic acid uptake assay, HEK293 cells stably expressing EAAT1; format: cell-based
# T1 construct: expressed in transfected cells
# Experimental: (§1) Table 1: Inhibition of [^3H]-D-Asp uptake in HEK293 cells stably expressing human EAAT1, EAAT2 and EAAT3. The IC50 values are given in μM with pIC50±S.E.M. values in brackets (n=3-7).
# (§2) The functional properties of the novel compounds of the invention were assessed in a [^3H]-D-Aspartic acid uptake assay using HEK293 cell lines stably expressing the human EAAT subtypes EAAT1, EAAT2 and EAAT3. Furthermore, some of the compounds were assayed at human EAAT1, EAAT2 and EAAT3 and the rat orthologs GLAST, GLT-1 and EAAC-1 in the FLIPR® Membrane Potential (FMP) Blue assay (Molecular Devices, Crawley, UK).
# (§3) FIG. I depicts a graph showing the concentration-inhibition curves for 1o at the human EAAT subtype EAAT1 stably expressed in HEK293 cell lines in a [^3H]-D-aspartic acid uptake assay. The cells (grown in wells of 96-well plates) were washed twice with assay buffer, and incubated with buffer supplemented with 30 nM [^3H]-D-aspartic acid in the absence (control) or presence of increasing concentrations of 1o at […] for 7 min. The assay mixtures were then quickly removed from the wells, and the cells were washed with 3 times with ice-cold buffer, scintillation fluid was added to each well, and the plate was counted in a TopCounter.
# human EAAT2 = molecular target: T2, human EAAT2 (Homo sapiens, UniProt P43004); assay: [3H]-D-Aspartic acid uptake assay, HEK293 cells stably expressing EAAT2; format: cell-based; conditions: n=3-7, read-out: Inhibition of [3H]-D-Asp uptake, EAAT2, IC50
# T2 construct: expressed in transfected cells
# Experimental: as §1, §2, §3
# human EAAT3 = molecular target: T3, human EAAT3 (Homo sapiens, UniProt P43005); assay: [3H]-D-Aspartic acid uptake assay, HEK293 cells stably expressing EAAT3; format: cell-based; conditions: n=3-7, read-out: Inhibition of [3H]-D-Asp uptake, EAAT3, IC50
# T3 construct: expressed in transfected cells
# T3 sequence (P43005 1-524): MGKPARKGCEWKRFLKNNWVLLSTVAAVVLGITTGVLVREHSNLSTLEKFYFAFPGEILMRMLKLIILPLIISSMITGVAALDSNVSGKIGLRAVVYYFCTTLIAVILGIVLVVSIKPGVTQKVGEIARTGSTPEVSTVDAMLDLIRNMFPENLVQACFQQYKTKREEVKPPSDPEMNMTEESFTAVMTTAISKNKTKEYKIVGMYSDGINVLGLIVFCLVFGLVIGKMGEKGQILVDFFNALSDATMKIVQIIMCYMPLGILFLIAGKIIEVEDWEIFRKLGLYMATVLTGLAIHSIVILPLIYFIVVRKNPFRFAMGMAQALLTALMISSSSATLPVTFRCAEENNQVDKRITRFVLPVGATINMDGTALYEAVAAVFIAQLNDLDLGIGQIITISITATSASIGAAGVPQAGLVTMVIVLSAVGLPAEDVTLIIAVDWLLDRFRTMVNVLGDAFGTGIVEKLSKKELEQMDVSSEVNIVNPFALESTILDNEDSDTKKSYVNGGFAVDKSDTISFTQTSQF
# Experimental: as §1, §2, §3
# Solubility in solvents = format: physicochemical; conditions: aq buffer solutions (pH=7.4), DMSO and CDCl3
# [1] = HEK293 cells stably expressing human EAAT1, n=3-7, read-out: Inhibition of [3H]-D-Asp uptake, EAAT1, IC50
# [2] = HEK293 cells stably expressing human EAAT1, value in brackets, n=3-7
# [3] = HEK293 cells stably expressing human EAAT1, value in brackets, n=3-7, read-out: Inhibition of [3H]-D-Asp uptake, EAAT1, pIC50±S.E.M. (converted)
# T1 sequence (P43003 whole entry): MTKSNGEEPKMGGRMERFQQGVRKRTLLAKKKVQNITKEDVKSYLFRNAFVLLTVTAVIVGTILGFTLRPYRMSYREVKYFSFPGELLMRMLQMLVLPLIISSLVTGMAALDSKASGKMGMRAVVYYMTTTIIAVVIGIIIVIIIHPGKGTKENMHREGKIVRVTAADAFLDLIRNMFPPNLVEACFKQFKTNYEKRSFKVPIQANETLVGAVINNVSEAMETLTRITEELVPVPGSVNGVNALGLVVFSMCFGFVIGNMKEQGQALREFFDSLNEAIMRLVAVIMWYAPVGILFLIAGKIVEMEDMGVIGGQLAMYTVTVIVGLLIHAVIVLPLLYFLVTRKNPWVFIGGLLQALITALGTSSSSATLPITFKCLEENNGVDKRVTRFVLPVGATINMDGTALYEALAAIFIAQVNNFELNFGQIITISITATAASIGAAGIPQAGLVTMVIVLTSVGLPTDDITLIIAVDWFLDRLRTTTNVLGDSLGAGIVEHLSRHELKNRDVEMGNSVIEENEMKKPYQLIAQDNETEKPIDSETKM
# T2 sequence (P43004 whole entry): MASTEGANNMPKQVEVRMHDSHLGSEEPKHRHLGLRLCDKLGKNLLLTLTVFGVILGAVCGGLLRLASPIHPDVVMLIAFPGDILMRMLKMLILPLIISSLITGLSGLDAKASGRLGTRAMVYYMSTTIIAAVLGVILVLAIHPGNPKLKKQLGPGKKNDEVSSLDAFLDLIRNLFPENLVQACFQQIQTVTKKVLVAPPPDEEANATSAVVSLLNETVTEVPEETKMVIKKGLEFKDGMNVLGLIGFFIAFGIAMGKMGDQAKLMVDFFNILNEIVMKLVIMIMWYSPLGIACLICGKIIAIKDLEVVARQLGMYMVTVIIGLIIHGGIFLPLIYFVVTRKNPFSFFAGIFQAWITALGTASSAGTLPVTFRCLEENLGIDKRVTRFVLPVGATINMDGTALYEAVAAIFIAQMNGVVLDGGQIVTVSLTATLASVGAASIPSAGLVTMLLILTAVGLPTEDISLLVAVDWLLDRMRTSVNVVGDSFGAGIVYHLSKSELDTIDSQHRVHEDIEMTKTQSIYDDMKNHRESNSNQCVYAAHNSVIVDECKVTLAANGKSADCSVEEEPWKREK
compound,measurement,setting,value
"COc1ccc(C2C(C#N)=C(N)OC3=C2C(=O)CC(c2ccccc2)C3)cc1 (stereo not shown) [1c, 2-Amino-4-(4-methoxyphenyl)-7-(phenyl)-5-oxo-5,6,7,8-tetrahydro-4H-chromene-3-carbonitrile]",IC50,human EAAT1; [1],2.3 µM
same,"Inhibition of [3H]-D-Asp uptake, EAAT1, pIC50±S.E.M.",human EAAT1; [2],5.64 ± 0.05
COc1cccc(C2C(C#N)=C(N)OC3=C2C(=O)CC(c2ccccc2)C3)c1OC (stereo not shown) [1f],IC50,human EAAT1; [3],~50.1 µM
"COc1ccc(C2C(C#N)=C(N)OC3=C2C(=O)CC(c2ccc(OC)c(OC)c2)C3)cc1 (stereo not shown) [1n, 2-Amino-4-(4-methoxyphenyl)-7-(3,4-dimethoxyphenyl)-5-oxo-5,6,7,8-tetrahydro-4H-chromene-3-carbonitrile]",IC50,human EAAT1; [1],11 µM
same,"Inhibition of [3H]-D-Asp uptake, EAAT1, pIC50±S.E.M.",human EAAT1; [2],4.97 ± 0.05
same,IC50,human EAAT2,> 300 µM
same,IC50,human EAAT3,> 300 µM
same,melting point,,159.9 to 161.4 °C
COc1ccc(C2C(C#N)=C(N)OC3=C2C(=O)CC(c2ccco2)C3)cc1OC(=O)N1CCOCC1 (stereo not shown) [1q],IC50,human EAAT1,~100 µM
N#CC1=C(N)OC2=C(C(=O)CC(c3ccccc3)C2)C1c1cccnc1 (stereo not shown) [1s],IC50,human EAAT1; [1],~30 µM
N#CC1=C(N)OC2=C(C(=O)CC(c3ccccc3)C2)C1Cc1ccccc1 (stereo not shown) [1u],IC50,human EAAT1; [1],~30 µM
"CC1C(C#N)=C(N)OC2=C1C(=O)CC(c1cccc3ccccc13)C2 (stereo not shown) [1w, 2-Amino-4-methyl-7-(naphthalene-1-yl)-5-oxo-5,6,7,8-tetrahydro-4H-chromene-3-carbo-nitrile]",IC50,human EAAT1; [1],0.58 µM
same,IC50,human EAAT1; [3],0.562 µM
same,IC50,human EAAT2,> 300 µM
same,IC50,human EAAT3,> 300 µM
same,Solubility in comparison with 1o,Solubility in solvents,significantly more soluble
